Measurements taken from US5591714A, “Derivatives of A82846” (priority 1994, dated 1997).
In brackets after ≈: the same amount, converted by molar mass. Where two headings read alike, the source gives them in different places.

Columns and labels:
[1] = test system: Enterococcus faecalis 2041; experiment: MIC, standard agar-dilution assay; type: cell-based
Procedure: (§1) The formula I compounds have in vitro and in vivo activity against Gram-positive pathogenic bacteria. The MIC's were determined using a standard agar-dilution assays.
^c Formerly Streptococcus faecalis 2041

Streptococcus pneumoniae = experiment: In vivo activity, experimentally infected mice (ED50); conditions: Streptococcus pneumoniae infection; doses administered subcutaneously to mice 1 and 4 hours postinfection
Enterococcus faecium X66 = experiment: MIC, standard agar-dilution assay; type: cell-based
Procedure: as §1
^b Formerly Streptococcus faecium X66

[2] = test system: vancomycin-resistant (Vanco^r) E. faecium and E. faecalis; experiment: Susceptibility of vancomycin-resistant enterococci, agar-dilution MIC; type: cell-based; conditions: for Geometric Mean MIC, Vanco^r Strains: n = 25 strains, end points read after 24-hour incubation
Procedure: (§2) End points were read after 24-hour incubation. The ratio was calculated by dividing the mean MIC of the compound against the vancomycin-resistant strains by the mean MIC of the compound against the vancomycin-susceptible strains.

[3] = test system: vancomycin-susceptible (Vanco^s) E. faecium and E. faecalis; experiment: Susceptibility of vancomycin-susceptible enterococci, agar-dilution MIC; type: cell-based; conditions: n = 34 strains; end points read after 24-hour incubation
Procedure: as §2

[4] = test system: Staphylococcus aureus V41; experiment: MIC, standard agar-dilution assay; type: cell-based
Procedure: as §1

[5] = test system: Staphylococcus epidermidis 222; experiment: MIC, standard agar-dilution assay; type: cell-based
Procedure: as §1

Escherichia coli N10 = experiment: MIC, standard agar-dilution assay; type: cell-based
Procedure: as §1

Escherichia coli TEM = experiment: MIC, standard agar-dilution assay; type: cell-based
Procedure: as §1

[6] = test system: Haemophilus influenzae 76; experiment: MIC, standard agar-dilution assay; type: cell-based
Procedure: as §1

[7] = test system: Klebsiella pneumoniae X68; experiment: MIC, standard agar-dilution assay; type: cell-based
Procedure: as §1

[8] = test system: Haemophilus influenzae C.L.; experiment: MIC, standard agar-dilution assay; type: cell-based
Procedure: as §1

[9] = test system: Staphylococcus epidermidis EPI270; experiment: MIC, standard agar-dilution assay; type: cell-based
Procedure: as §1

[10] = test system: Streptococcus pyogenes C203; experiment: MIC, standard agar-dilution assay; type: cell-based
Procedure: as §1

[11] = test system: Klebsiella pneumoniae X26; experiment: MIC, standard agar-dilution assay; type: cell-based
Procedure: as §1

[12] = test system: Klebsiella pneumoniae KAE; experiment: MIC, standard agar-dilution assay; type: cell-based
Procedure: as §1

Escherichia coli EC14 = experiment: MIC, standard agar-dilution assay; type: cell-based
Procedure: as §1

[13] = test system: Staphylococcus aureus X400; experiment: MIC, standard agar-dilution assay; type: cell-based
Procedure: as §1

[14] = test system: Staphylococcus aureus NRRL X1.1; experiment: MIC, standard agar-dilution assay; type: cell-based
Procedure: as §1

[15] = test system: Staphylococcus aureus S13E; type: cell-based
Procedure: as §1

[16] = test system: Streptococcus pneumoniae Park 1; type: cell-based
Procedure: as §1

Staphylococcus aureus = experiment: In vivo activity, experimentally infected mice (ED50); conditions: Staphylococcus aureus infection; doses administered subcutaneously to mice 1 and 4 hours postinfection
Streptococcus pyogenes = experiment: as above; conditions: Streptococcus pyogenes infection; doses administered subcutaneously to mice 1 and 4 hours postinfection
[17] = test system: six vancomycin-susceptible strains of staphylococci and enterococci; experiment: Effect of human serum on the MIC, serial dilution assay; type: cell-based; conditions: for MIC determined in absence of added serum: absence (-) of human serum; for MIC determined in presence of human serum: broth supplemented with human serum to 40%
Excerpt: Another important property of the formula I compounds is the low binding of the compounds to serum proteins when compared with other glycopeptide antibiotics. […] The ratio of the MIC measured in the presence of added serum to the MIC measured in the absence of added serum ("ratio") is an indication of the degree of serum binding. […] A ratio that is greater than one, for example about ten, indicates the compound has a high degree of serum binding.

| Structure (SMILES) | MIC [1] | ED50 (Streptococcus pneumoniae) | MIC (Enterococcus faecium X66) | Ratio (mean MIC vancomycin-resistant strains / mean MIC vancomycin-susceptible strains) [2] | Geometric Mean MIC, Vanco^r Strains [2] | Geometric Mean MIC, Vanco^s Strains [3] | MIC [4] | MIC [5] | MIC (Escherichia coli N10) | MIC (Escherichia coli TEM) | MIC [6] | MIC [7] | MIC [8] | MIC [9] | MIC [10] | MIC [11] | MIC [12] | MIC (Escherichia coli EC14) | MIC [13] | MIC [14] | further results |
| --- | --- | --- | --- | --- | --- | --- | --- | --- | --- | --- | --- | --- | --- | --- | --- | --- | --- | --- | --- | --- | --- |
| CCCCCCCCN[C@@]1(C)C[C@H](O[C@H]2[C@H](Oc3c4cc5cc3Oc3ccc(cc3Cl)[C@@H](O)[C@@H](NC(=O)[C@@H](CC(C)C)NC)C(=O)N[C@@H](CC(N)=O)C(=O)N[C@H]5C(=O)N[C@H]3C(=O)N[C@H](C(=O)N[C@H](C(=O)O)c5cc(O)cc(O)c5-c5cc3ccc5O)[C@H](O[C@H]3C[C@](C)(N)[C@@H](O)[C@H](C)O3)c3ccc(cc3)O4)O[C@H](CO)[C@@H](O)[C@@H]2O)O[C@@H](C)[C@@H]1O [Compound 1] | 1 µg/mL (≈ 0.599 µM) | 0.43 mg/kg/2 | 1 µg/mL (≈ 0.599 µM) | 4.9 | 9.7 µg/mL | 2.2 µg/mL | 1 µg/mL (≈ 0.599 µM) | 1 µg/mL (≈ 0.599 µM) | > 128 µg/mL | > 128 µg/mL | > 128 µg/mL | > 128 µg/mL | > 128 µg/mL | 1 µg/mL (≈ 0.599 µM) | .25 µg/mL (≈ 0.15 µM) | > 128 µg/mL | > 128 µg/mL | > 128 µg/mL | 1 µg/mL (≈ 0.599 µM) | 1 µg/mL (≈ 0.599 µM) | MIC [15]: .5 µg/mL (≈ 0.299 µM); MIC [16]: .5 µg/mL (≈ 0.299 µM); ED50 (Staphylococcus aureus): 3.35 mg/kg/2; ED50 (Streptococcus pyogenes): 0.43 mg/kg/2 |
| CN[C@H](CC(C)C)C(=O)N[C@H]1C(=O)N[C@@H](CC(N)=O)C(=O)N[C@H]2C(=O)N[C@H]3C(=O)N[C@H](C(=O)N[C@H](C(=O)O)c4cc(O)cc(O)c4-c4cc3ccc4O)[C@H](O[C@H]3C[C@](C)(N)[C@@H](O)[C@H](C)O3)c3ccc(c(Cl)c3)Oc3cc2cc(c3O[C@@H]2O[C@H](CO)[C@@H](O)[C@H](O)[C@H]2O[C@H]2C[C@](C)(NCCc3ccccc3)[C@@H](O)[C@H](C)O2)Oc2ccc(cc2Cl)[C@H]1O [Compound 43] | .5 µg/mL (≈ 0.295 µM) | 0.11 mg/kg/2 | 1 µg/mL (≈ 0.589 µM) | 5.2 | 4.0 µg/mL | 0.77 µg/mL | .5 µg/mL (≈ 0.295 µM) | .25 µg/mL (≈ 0.147 µM) | > 128 µg/mL | > 128 µg/mL | > 128 µg/mL | > 128 µg/mL | > 128 µg/mL | 1 µg/mL (≈ 0.589 µM) | .5 µg/mL (≈ 0.295 µM) | > 128 µg/mL | > 128 µg/mL | > 128 µg/mL | 1 µg/mL (≈ 0.589 µM) | .25 µg/mL (≈ 0.147 µM) | MIC [15]: 1 µg/mL (≈ 0.589 µM); MIC [16]: .125 µg/mL (≈ 0.0737 µM); ED50 (Staphylococcus aureus): 0.125 mg/kg/2; ED50 (Streptococcus pyogenes): 0.38 mg/kg/2 |
| CNC(CC(C)C)C(=O)NC1C(=O)NC(CC(N)=O)C(=O)NC2C(=O)NC3C(=O)NC(C(=O)NC(C(=O)O)c4cc(O)cc(O)c4-c4cc3ccc4O)C(OC3CC(C)(N)C(O)C(C)O3)c3ccc(c(Cl)c3)Oc3cc2cc(c3OC2OC(CO)C(O)C(O)C2OC2CC(C)(NCC(c3ccccc3)c3ccccc3)C(O)C(C)O2)Oc2ccc(cc2Cl)C1O (centres unmarked) [Compound 45] | .5 µg/mL (≈ 0.282 µM) | 0.1 mg/kg/2 | .5 µg/mL (≈ 0.282 µM) | 5.5 | 9.4 µg/mL | 1.7 µg/mL | .5 µg/mL (≈ 0.282 µM) | .5 µg/mL (≈ 0.282 µM) | > 128 µg/mL | > 128 µg/mL | > 128 µg/mL | > 128 µg/mL | > 128 µg/mL | 1 µg/mL (≈ 0.564 µM) | .125 µg/mL (≈ 0.0705 µM) | > 128 µg/mL | > 128 µg/mL | > 128 µg/mL | .5 µg/mL (≈ 0.282 µM) | .25 µg/mL (≈ 0.141 µM) | MIC [15]: .5 µg/mL (≈ 0.282 µM); MIC [16]: .25 µg/mL (≈ 0.141 µM); ED50 (Staphylococcus aureus): 0.77 mg/kg/2; ED50 (Streptococcus pyogenes): 0.1 mg/kg/2 |
| CCN(CC)c1ccc(CNC2(C)CC(OC3C(Oc4c5cc6cc4Oc4ccc(cc4Cl)C(OC4CC(C)(N)C(O)C(C)O4)C4NC(=O)C(NC(=O)C6NC(=O)C(CC(N)=O)NC(=O)C(NC(=O)C(CC(C)C)NC)C(O)c6ccc(c(Cl)c6)O5)c5ccc(O)c(c5)-c5c(O)cc(O)cc5C(C(=O)O)NC4=O)OC(CO)C(O)C3O)OC(C)C2O)cc1 (centres unmarked) [Compound 56] | .5 µg/mL (≈ 0.285 µM) | .09 mg/kg/2 | 1 µg/mL (≈ 0.57 µM) | 7.0 | 5.1 µg/mL | 0.73 µg/mL | .5 µg/mL (≈ 0.285 µM) | .5 µg/mL (≈ 0.285 µM) | > 128 µg/mL | > 128 µg/mL | > 128 µg/mL | > 128 µg/mL | > 128 µg/mL | 2 µg/mL (≈ 1.14 µM) | .5 µg/mL (≈ 0.285 µM) | > 128 µg/mL | > 128 µg/mL | > 128 µg/mL | 1 µg/mL (≈ 0.57 µM) | .5 µg/mL (≈ 0.285 µM) | MIC [15]: 1 µg/mL (≈ 0.57 µM); MIC [16]: .5 µg/mL (≈ 0.285 µM); ED50 (Staphylococcus aureus): 0.65 mg/kg/2; ED50 (Streptococcus pyogenes): .06 mg/kg/2 |
| CNC(CC(C)C)C(=O)NC1C(=O)NC(CC(N)=O)C(=O)NC2C(=O)NC3C(=O)NC(C(=O)NC(C(=O)O)c4cc(O)cc(O)c4-c4cc3ccc4O)C(OC3CC(C)(N)C(O)C(C)O3)c3ccc(c(Cl)c3)Oc3cc2cc(c3OC2OC(CO)C(O)C(O)C2OC2CC(C)(NCc3ccc(Cl)cc3)C(O)C(C)O2)Oc2ccc(cc2Cl)C1O (centres unmarked) [Compound 60] | .25 µg/mL (≈ 0.146 µM) | 0.08 mg/kg/2 | .25 µg/mL (≈ 0.146 µM) | 5.5 | 3.6 µg/mL | 0.65 µg/mL | .25 µg/mL (≈ 0.146 µM) | .25 µg/mL (≈ 0.146 µM) | > 128 µg/mL | > 128 µg/mL | > 128 µg/mL | > 128 µg/mL | > 128 µg/mL | .5 µg/mL (≈ 0.291 µM) | .06 µg/mL (≈ 0.0349 µM) | > 128 µg/mL | > 128 µg/mL | > 128 µg/mL | .5 µg/mL (≈ 0.291 µM) | .125 µg/mL (≈ 0.0728 µM) | MIC determined in absence of added serum [17]: 0.76; ratio of the MIC in the presence of added serum to the MIC in the absence of added serum ([17]; indication of the degree of serum binding): 2.0; MIC determined in presence of human serum [17]: 1.5; MIC [16]: .06 µg/mL (≈ 0.0349 µM); ED50 (Staphylococcus aureus): 0.25 mg/kg/2; ED50 (Streptococcus pyogenes): 0.06 mg/kg/2 |
| CN[C@H](CC(C)C)C(=O)N[C@H]1C(=O)N[C@@H](CC(N)=O)C(=O)N[C@H]2C(=O)N[C@H]3C(=O)N[C@H](C(=O)N[C@H](C(=O)O)c4cc(O)cc(O)c4-c4cc3ccc4O)[C@H](O[C@H]3C[C@](C)(N)[C@@H](O)[C@H](C)O3)c3ccc(c(Cl)c3)Oc3cc2cc(c3O[C@@H]2O[C@H](CO)[C@@H](O)[C@H](O)[C@H]2O[C@H]2C[C@](C)(N)[C@@H](O)[C@H](C)O2)Oc2ccc(cc2Cl)[C@H]1O [Compound A82846B, A82846B, reference compound] | – | – | – | 18.4 | 9.4 µg/mL | 0.51 µg/mL | – | – | – | – | – | – | – | – | – | – | – | – | – | – | ratio of the MIC in the presence of added serum to the MIC in the absence of added serum [17]: 1.5; MIC determined in absence of added serum [17]: 0.5; MIC determined in presence of human serum [17]: 0.75 |
